Assay results taken from patent publication US20260306440A1, “USE OF SMALL MOLECULES TO INCREASE HYPOXIA INDUCIBLE FACTOR (HIF) ACTIVITY” (BROWN UNIVERSITY, priority 2023, published 2026).

What was measured:
VEGF [1] = assay: Expression of VEGF protein in SW480 cells treated with compound (FIG. 4); type: cell-based; conditions: normoxia 6 h (FIG. 4)
Description: (§1) Normoxia refers to a regular cell culture condition at 21% oxygen concentration.

HIF-1α = assay: Expression of HIF-1α protein in cancer cell lines treated with compound (FIGS. 1-4, 29, 30, 32); type: cell-based
Description: (§2) Hypoxic conditions (0.5% O2) were achieved by culturing cells in a hypoxia chamber (HypOxygen H35 HypOxystation) which controls and maintains a stable level of oxygen, carbon dioxide, temperature and humidity.
as §1

[2] = test system: erythropoietin (EPO) mRNA; assay: EPO mRNA expression in HCT116 cells by real-time PCR; type: cell-based; conditions: HCT116, normoxia or hypoxia, indicated durations (FIG. 31)
Method: Total RNA was extracted from cells using the RNeasy Mini Kit (Qiagen). cDNA was obtained by reverse transcription with random primers using the SuperScript II First-Strand Synthesis System (Invitrogen). Real-time PCR reactions were performed with SYBR Green Master Mix (Applied Biosystems) using the QuantStudio™ 6 Pro Real-Time PCR System.
as §2, §1
Cells were treated for indicated durations in normoxia or hypoxia. Extracted RNA was analyzed by real-time PCR. M: MG132 (5 μM). Statistic analysis: two-way anova+Dunnett's multiple comparisons test.

PGK1 = assay: Luciferase reporter assay, PGK1-HRE::dLUC (HCT116 or SW480 stable cell lines); type: cell-based, human; conditions: HCT116 and SW480, normoxia and hypoxia, 6 h (FIGS. 5-24)
Method: (§3) HCT116 or SW480 cells were transfected using lipofectamine 2000 (Invitrogen, USA) with pGL4.22-VEGF-HRE::dLUC or pGL4.22-PGK1-HRE::dLUC plasmids expressing the luciferase reporter with hypoxia response element (HRE) derived from the human PGK1 promoter or the human VEGF promoter (Walton Z. E. et al., Cell. 2018 Jun. 28; 174(1):72-87). Cells were cultured and selected in 2 μg/mL (for HCT116) or 4 μg/mL (for SW480) puromycin-containing DMEM medium (Cytiva HyClone) after 24 h of transfection. Individual clones were picked and expanded. Verification of the luciferase reporter-bearing cells were performed by measuring the bioluminescence in hypoxia upon addition of the substrate (luciferin) using the IVIS imaging system.
(§4) Luciferase-reporter expressing cells were seeded in 96-well black plates at a density of 2~4×10^4 cells/well. Treatment with compounds were performed on the next day for 6 h under normoxia or hypoxia. After substrate (luciferin) addition, plates were imaged for luminescence intensity in the IVIS imaging system.
as §2, §1

VEGF [3] = assay: Luciferase reporter assay, VEGF-HRE::dLUC (HCT116 or SW480 stable cell lines); type: cell-based, human
Method: as §3, §4, §2, §1

[4] = hypoxia (0.5% O2), FIG. 2: SW480 cells, 6 h
[5] = normoxia (21% O2), FIGS. 1, 3, 4: SW480, RCC4 cells, 6 h

Question: With `CCc1ccc(/C=C/C(=O)Nc2ccc(C(C)=O)cc2)o1` [Heclin] as the compound, how does the VEGF expression (VEGF [1]) read?
Answer: increase

Question: And the “expression of HIF-1α” value (HIF-1α; [4])?
Answer: increase

Question: And the “expression of HIF-1α” value (HIF-1α; [5])?
Answer: increase

Question: With `O=C(O)c1ccc(N2C(=O)C(=Cc3ccc(-c4ccc([N+](=O)[O-])cc4)o3)C=C2c2ccccc2)cc1` [4E1Rcat] as the compound, how does the “erythropoietin (EPO) mRNA expression” value [2] read?
Answer: increases

Question: And the VEGF expression (VEGF [1])?
Answer: increase

Question: What about the “expression of PGK1 as measured in a luciferase assay” value (PGK1) of the same compound?
Answer: increases

Question: What about the HIF-1α expression (HIF-1α; HCT116, normoxia, 6, 8 or 10 hours (FIG. 29)) of the same compound?
Answer: increases

Question: And the “expression of HIF-1α” value (HIF-1α; HT29 (colorectal cancer) cells, normoxia 6 h (FIG. 30))?
Answer: increases

Question: And the “expression of HIF-1α” value (HIF-1α; PANC1 (pancreatic cancer) cells, normoxia 6 h (FIG. 30))?
Answer: increases

Question: And the “expression of HIF-1α” value (HIF-1α; [4])?
Answer: increase

Question: What about the “expression of HIF-1α” value (HIF-1α; [5]) of the same compound?
Answer: increase

Question: And the “VEGF upregulation as measured by a luciferase assay, despite incubation with siRNA EIF4E” value (shortened to “VEGF upregulation as measured”) (VEGF [3]; HCT116, hypoxia 6 h, two different eIF4E siRNAs for 48 hours (FIG. 26))?
Answer: upregulated

Question: And the “VEGF upregulation as measured” value (VEGF [3]; HCT116, normoxia 6 h, two different eIF4E siRNAs for 48 hours (FIG. 25))?
Answer: upregulated

Question: What about the “expression of VEGF as measured in a luciferase assay” value (VEGF [3]; HCT116 and SW480, normoxia and hypoxia, 6 h (FIGS. 5-24)) of the same compound?
Answer: increases

Question: What about the “VEGF upregulation as measured” value (VEGF [3]; SW480, hypoxia 6 h, two different eIF4E siRNAs for 48 hours (FIG. 28)) of the same compound?
Answer: upregulated

Question: What about the “VEGF upregulation as measured” value (VEGF [3]; SW480, normoxia 6 h, two different eIF4E siRNAs for 48 hours (FIG. 27)) of the same compound?
Answer: upregulated

Question: What does the source list for `CC1=NN(c2ccc(C(=O)O)cc2)C(=O)/C1=C/c1ccc(-c2cc(C)c(C)cc2[N+](=O)[O-])o1` [C 646]?
Answer: VEGF expression (VEGF [1]): increase; expression of HIF-1α (HIF-1α; [4]): increase; expression of HIF-1α (HIF-1α; [5]): increase

Question: For `CCOC(=O)c1ccc(N2NC(=O)/C(=C/c3ccc([N+](=O)[O-])o3)C2=O)cc1` [PYR 41], which VEGF expression (VEGF [1]) is on record?
Answer: increase

Question: And the HIF-1α expression (HIF-1α; HCT116, hypoxia (FIG. 32))?
Answer: increases

Question: And the HIF-1α expression (HIF-1α; RCC4 renal cell carcinoma cells, normoxia (FIG. 32))?
Answer: increases

Question: And the HIF-1α expression (HIF-1α; SW480, hypoxia (FIG. 32))?
Answer: increases

Question: And the HIF-1α expression (HIF-1α; SW480, normoxia (FIG. 32))?
Answer: increases

Question: And the “expression of HIF-1α” value (HIF-1α; [4])?
Answer: increase

Question: And the “expression of HIF-1α” value (HIF-1α; [5])?
Answer: increase
